Experimental data as given in patent US20140017187A1, “Use of 5-(7-methoxy-3,3-dimethyl-2,3-dihydro-1-benzoxepin-5-yl)-3-methyl-penta-2,4-dienoic acid as a cosmetic” (Merck Patent GmbH, priority 2008, published 2014).

Assays:
[1] = system: B16-V melanoma cells; assay: Inhibition of melanin synthesis in B16-V melanoma cells (alpha-MSH stimulated); assay type: cell-based; conditions: 72 h, alpha-MSH stimulation
Procedure: DMSO is the solvent as negative and IBMX (3-Isobutyl-1-methylxantine) is our positive control. Kojic acid (KA) is the known reference ingredient for skin whitening.
B16-V melanoma cells were incubated for 72 h with assay medium containing different amounts of test substances. The concentration depends on the results of the MTT-Assay. Only concentrations without effect on viability (after 24 h incubation) were used for further melanin evaluation. Every 24 hours medium was changed and replaced by fresh assay medium containing the compounds and alpha-MSH (stimulation of melanin synthesis). The cell number was determined and the cells got lysed using 1M NaOH. Afterwards the amount of melanin was measured at 405 nm with a microplatereader (Safire2™, Tecan). Different concentrations of synthetic melanin were used to produce a calibration curve. Melanin content was expressed as pg/cell.

[2] = system: human skin model; assay: cDNA microarray gene expression profiling (Affymetrix) of treated skin equivalents, GeneGO MetaCore analysis; assay type: cell-based
Procedure: One of the advantages of cDNA microarray is the possibility to observe the expression pattern of the whole genes and compare with different conditions. This is the first study to determine the gene expression profiles of Compound-treated human skin. For the analysis of deregulated gene expression induced by substance Compound, treated and control samples from a human skin model were analyzed with Affymetrix oligonucleotide microarrays. Skin has been among the first organs analysed using DNA-Microarrays. In addition, epidermal keratinocytes have been the target of many studies because they respond to a rich variety of inflammatory and immunmodulating cytokines, hormones, vitamins, ultraviolet (UV) light, toxins and physical injury. Altered gene expression after applying substance Compound was analysed with an Affymetrix system.
For gene expression studies skin equivalents were treated with 50 μL of 2 relevant substance Compound with a concentration of c=50 μM in PBS-buffer/DMSO. Buffer-treated skin equivalents served as controls.
A ratio (log 2) value of zero indicates no regulation, whereas positive (log 2) values indicate an upregulation and negative (log 2) values a downregulation of the relevant gene.
The experiment contains 759 genes with the specified threshold (Appendix A)
GeneGO's Metacore (Pathways and Maps) Software.
Enrichment analysis consists of matching gene IDs for the common, similar and unique sets of the uploaded files with gene IDs in functional ontologies in MetaCore. The ontologies include canonical pathway maps, GeneGo cellular processes, GO cellular processes and diseases categories. The degree of “relevance” to different categories for the uploaded datasets is defined by p-values, so that the lower p-value gets higher priority.

[3] = cDNA microarray, skin equivalents, 50 μM

expression of Caspase 14, P57/KIP2 [2, 3]: significantly upregulated
expression of RXRA (retinoid X receptors A) [2, 3]: upregulation
expression of SCARB, INSIG2, ATP binding cassette and VLDLR genes [2, 3]: upregulation
SMILES: COc1ccc2c(c1)C(/C=C/C(C)=C/C(=O)O)=CC(C)(C)CO2 [Compound, 5-(7-methoxy-3,3-dimethyl-2,3-dihydro-1-benzoxepin-5-yl)-3-methyl-penta-2,4-dienoic acid]
melanin inhibiting activity (melanin content pg/cell, FIG. 1) [1]: superb melanin inhibiting activity
melanin inhibiting activity compared with kojic acid (FIG. 1) [1]: significantly better than kojic acid
Ratio as Log2 value, gene CASP14 ([2]; Caspase 14 precursor, skin equivalents, 50 μM, vs buffer-treated control): 1.44 Log2
Ratio as Log2 value, gene UGCG ([2]; Ceramide glucosyltransferase, skin equivalents, 50 μM, vs buffer-treated control): 0.7977 Log2
Ratio as Log2 value, gene CDSN ([2]; Corneodesmosin precursor, skin equivalents, 50 μM, vs buffer-treated control): 1.207 Log2
Ratio as Log2 value, gene ELF3 ([2]; ETS-related transcription factor Elf-3, skin equivalents, 50 μM, vs buffer-treated control): −1.46 Log2
Ratio as Log2 value, gene EMP1 ([2]; Epithelial membrane protein 1, skin equivalents, 50 μM, vs buffer-treated control): 1.278 Log2
Ratio as Log2 value, gene KRT34 ([2]; Keratin, type I cuticular Ha4, skin equivalents, 50 μM, vs buffer-treated control): 1.695 Log2
Ratio as Log2 value, gene KRT10 ([2]; Keratin, type I cytoskeletal 10, skin equivalents, 50 μM, vs buffer-treated control): −0.6644 Log2
Ratio as Log2 value, gene KRT13 ([2]; Keratin, type I cytoskeletal 13, skin equivalents, 50 μM, vs buffer-treated control): −0.8963 Log2
Ratio as Log2 value, gene LAMA3 ([2]; Laminin subunit alpha-3 precursor, skin equivalents, 50 μM, vs buffer-treated control): 0.6648 Log2
Ratio as Log2 value, gene LAMB3 ([2]; Laminin subunit beta-3 precursor, skin equivalents, 50 μM, vs buffer-treated control): 1.168 Log2
Ratio as Log2 value, gene LCE2B ([2]; Late cornified envelope protein 2B, skin equivalents, 50 μM, vs buffer-treated control): 1.326 Log2
Ratio as Log2 value, gene PTHLH ([2]; Parathyroid hormone-related protein, skin equivalents, 50 μM, vs buffer-treated control): −0.7916 Log2
Ratio as Log2 value, gene S100a7 ([2]; Protein S100-A7, skin equivalents, 50 μM, vs buffer-treated control): −0.6784 Log2
Ratio as Log2 value, gene OVOL1 ([2]; Putative transcription factor Ovo-like 1, skin equivalents, 50 μM, vs buffer-treated control): 1.064 Log2
expression of FABP4 and Leptin ([2]; cDNA microarray data): significantly upregulated
expression of Fibronectin, Elastin and Laminin [2, 3]: upregulated significantly
expression of HAS2 gene (hyaluronan synthase 2) [2, 3]: upregulated
expression of IL-6, TNF-alpha induced proteins, IL-8, CCL8, CCL2, CXCL2, CXCL12, CXCL3, CXCL5 and ICAM-1 [2, 3]: significantly downregulated
expression of MMP genes MMP9, MMP14, MMP11 [2, 3]: down regulated
expression of S100A7, S100A7A and S100A12 [2, 3]: downregulated
Compound vs. Control, ratio Log(2) value ([2]; gene ABCG1 (ABCG1_HUMAN, ATP-binding cassette sub-family G member 1)): 1.297 Log(2)
Compound vs. Control, ratio Log(2) value ([2]; gene CASP14 (CASPE_HUMAN, Caspase-14 precursor)): 1.44 Log(2)
Compound vs. Control, ratio Log(2) value ([2]; gene CCL2 (CCL2_HUMAN, C-C motif chemokine 2 precursor)): −1.731 Log(2)
Compound vs. Control, ratio Log(2) value ([2]; gene CCL8 (CCL8_HUMAN, C-C motif chemokine 8 precursor)): −2.505 Log(2)
Compound vs. Control, ratio Log(2) value ([2]; gene CDKN1C (CDN1C_HUMAN, Cyclin-dependent kinase inhibitor 1C)): 0.8737 Log(2)
Compound vs. Control, ratio Log(2) value ([2]; gene CERK (CERK1_HUMAN, Ceramide kinase)): 0.729 Log(2)
Compound vs. Control, ratio Log(2) value ([2]; gene CLDN17 (CLD17_HUMAN, Claudin-17)): 2.19 Log(2)
Compound vs. Control, ratio Log(2) value ([2]; gene COL4A3BP (C43BP_HUMAN, Collagen type IV alpha-3-binding protein)): 1.233 Log(2)
Compound vs. Control, ratio Log(2) value ([2]; gene CXCL2 (MIP2A_HUMAN, Macrophage inflammatory protein 2-alpha precursor)): −1.267 Log(2)
Compound vs. Control, ratio Log(2) value ([2]; gene CXCL3 (MIP2B_HUMAN, Macrophage inflammatory protein 2-beta precursor)): −0.723 Log(2)
Compound vs. Control, ratio Log(2) value ([2]; gene CXCL5 (CXCL5_HUMAN, C-X-C motif chemokine 5 precursor)): −0.8263 Log(2)
Compound vs. Control, ratio Log(2) value ([2]; gene CXCL12 (SDF1_HUMAN, Stromal cell-derived factor 1 precursor)): −0.8377 Log(2)
Compound vs. Control, ratio Log(2) value ([2]; gene EGFR (EGFR_HUMAN, Epidermal growth factor receptor precursor)): 0.9876 Log(2)
Compound vs. Control, ratio Log(2) value ([2]; gene ELF3 (ELF3_HUMAN, ETS-related transcription factor Elf-3)): −1.46 Log(2)
Compound vs. Control, ratio Log(2) value ([2]; gene ELN (ELN_HUMAN, Elastin precursor)): 0.7751 Log(2)
